# Data from the supplement of paper PMC10307832.
# Experiments:
# Test in all cases: relative viability (nuclei count vs DMSO), 5 days (fraction); higher = more cells survive
# FH535 + Crizotinib = compound: CC1=C(C=CC(=C1)[N+](=O)[O-])NS(=O)(=O)C2=C(C=CC(=C2)Cl)Cl [FH535] + C[C@@H](Oc1cc(-c2cnn(C3CCNCC3)c2)cnc1N)c1c(Cl)ccc(F)c1Cl [Crizotinib] (partner 1 µM)
# In short: (§1)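 Cells from lung cancer lines were seeded into 1536-well plates and, one day later, dosed by pin tool. Treatments were either a single drug or a fixed dose of an anchor drug with five library-drug doses (not always all listed) in √10 steps. After 5 days, nuclei were stained in a one-step fixation (final 0.05% Triton X-100, 1% formaldehyde, 1 ug/ml Hoechst) and counted on 4× images, and relative viability is the treated-to-vehicle nuclei ratio, as the median of duplicate plates.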
# FH535 + Pictilisib = compound: CC1=C(C=CC(=C1)[N+](=O)[O-])NS(=O)(=O)C2=C(C=CC(=C2)Cl)Cl [FH535] + CS(=O)(=O)N1CCN(Cc2cc3nc(-c4cccc5[nH]ncc45)nc(N4CCOCC4)c3s2)CC1 [Pictilisib] (partner 1 µM)
# In short: as §1
# FH535 + Lapatinib = compound: CC1=C(C=CC(=C1)[N+](=O)[O-])NS(=O)(=O)C2=C(C=CC(=C2)Cl)Cl [FH535] + CS(=O)(=O)CCNCc1ccc(-c2ccc3ncnc(Nc4ccc(OCc5cccc(F)c5)c(Cl)c4)c3c2)o1 [Lapatinib] (partner 2 µM)
# In short: as §1
# FH535 + Phenformin = compound: CC1=C(C=CC(=C1)[N+](=O)[O-])NS(=O)(=O)C2=C(C=CC(=C2)Cl)Cl [FH535] + N=C(N)NC(=N)NCCc1ccccc1 [Phenformin] (partner 250 µM)
# In short: as §1
# FH535 + Navitoclax = compound: CC1=C(C=CC(=C1)[N+](=O)[O-])NS(=O)(=O)C2=C(C=CC(=C2)Cl)Cl [FH535] + CC1(C)CCC(c2ccc(Cl)cc2)=C(CN2CCN(c3ccc(C(=O)NS(=O)(=O)c4ccc(N[C@H](CCN5CCOCC5)CSc5ccccc5)c(S(=O)(=O)C(F)(F)F)c4)cc3)CC2)C1 [Navitoclax] (partner 0.5 µM)
# In short: as §1
# FH535 + Foretinib = compound: CC1=C(C=CC(=C1)[N+](=O)[O-])NS(=O)(=O)C2=C(C=CC(=C2)Cl)Cl [FH535] + COc1cc2c(Oc3ccc(NC(=O)C4(C(=O)Nc5ccc(F)cc5)CC4)cc3F)ccnc2cc1OCCCN1CCOCC1 [Foretinib] (partner 0.25 µM)
# In short: as §1
# FH535 + Alpelisib = compound: CC1=C(C=CC(=C1)[N+](=O)[O-])NS(=O)(=O)C2=C(C=CC(=C2)Cl)Cl [FH535] + Cc1nc(NC(=O)N2CCC[C@H]2C(N)=O)sc1-c1ccnc(C(C)(C)C(F)(F)F)c1 [Alpelisib] (partner 2 µM)
# In short: as §1
# FH535 + Linsitinib = compound: CC1=C(C=CC(=C1)[N+](=O)[O-])NS(=O)(=O)C2=C(C=CC(=C2)Cl)Cl [FH535] + C[C@]1(O)C[C@@H](c2nc(-c3ccc4ccc(-c5ccccc5)nc4c3)c3c(N)nccn32)C1 [Linsitinib] (partner 1 µM)
# In short: as §1
# FH535 + Olaparib = compound: CC1=C(C=CC(=C1)[N+](=O)[O-])NS(=O)(=O)C2=C(C=CC(=C2)Cl)Cl [FH535] + O=C(c1cc(Cc2n[nH]c(=O)c3ccccc23)ccc1F)N1CCN(C(=O)C2CC2)CC1 [Olaparib] (partner 8 µM)
# In short: as §1
# FH535 + Decitabine = compound: CC1=C(C=CC(=C1)[N+](=O)[O-])NS(=O)(=O)C2=C(C=CC(=C2)Cl)Cl [FH535] + Nc1ncn([C@H]2C[C@H](O)[C@@H](CO)O2)c(=O)n1 [Decitabine] (partner 2 µM)
# In short: as §1
# FH535 = compound: CC1=C(C=CC(=C1)[N+](=O)[O-])NS(=O)(=O)C2=C(C=CC(=C2)Cl)Cl [FH535]
# In short: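 Following overnight incubation at 37 °C, lung cancer cell lines in 1536-well plates were pinned with five library-drug doses (not always all listed) in √10 steps on vehicle-anchored plates. The cells then spent 5 days without medium change before a combined fix, permeabilisation and Hoechst stain, 4× imaging and MetaXpress nuclear counts. Viability is the treated-to-vehicle ratio of nuclei, taken as the median across plates. Only plates with control CV below 25% and at least one doubling passed.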
# FH535 + Bortezomib = compound: CC1=C(C=CC(=C1)[N+](=O)[O-])NS(=O)(=O)C2=C(C=CC(=C2)Cl)Cl [FH535] + CC(C)C[C@H](NC(=O)[C@H](Cc1ccccc1)NC(=O)c1cnccn1)B(O)O [Bortezomib] (partner 0.002 µM)
# In short: as §1
cell line,measurement,setting,value
A549,relative viability,FH535 + Crizotinib; first compound 0.04 µM,0.749
same,relative viability,FH535 + Crizotinib; first compound 0.1265 µM,0.783
same,relative viability,FH535 + Crizotinib; first compound 0.4 µM,0.631
same,relative viability,FH535 + Crizotinib; first compound 1.265 µM,0.41
same,relative viability,FH535 + Pictilisib; first compound 0.04 µM,0.553
same,relative viability,FH535 + Pictilisib; first compound 0.1265 µM,0.511
same,relative viability,FH535 + Pictilisib; first compound 0.4 µM,0.494
same,relative viability,FH535 + Pictilisib; first compound 1.265 µM,0.398
same,relative viability,FH535 + Lapatinib; first compound 0.04 µM,0.979
same,relative viability,FH535 + Lapatinib; first compound 0.1265 µM,0.947
same,relative viability,FH535 + Lapatinib; first compound 0.4 µM,0.864
same,relative viability,FH535 + Lapatinib; first compound 1.265 µM,0.578
same,relative viability,FH535 + Phenformin; first compound 0.04 µM,0.175
same,relative viability,FH535 + Phenformin; first compound 0.1265 µM,0.159
same,relative viability,FH535 + Phenformin; first compound 0.4 µM,0.116
same,relative viability,FH535 + Phenformin; first compound 1.265 µM,0.043
same,relative viability,FH535 + Navitoclax; first compound 0.04 µM,1.28
same,relative viability,FH535 + Navitoclax; first compound 0.1265 µM,1.16
same,relative viability,FH535 + Navitoclax; first compound 0.4 µM,1.25
same,relative viability,FH535 + Navitoclax; first compound 1.265 µM,0.936
same,relative viability,FH535 + Foretinib; first compound 0.04 µM,0.947
same,relative viability,FH535 + Foretinib; first compound 0.1265 µM,0.981
same,relative viability,FH535 + Foretinib; first compound 0.4 µM,0.853
same,relative viability,FH535 + Foretinib; first compound 1.265 µM,0.722
same,relative viability,FH535 + Alpelisib; first compound 0.04 µM,0.842
same,relative viability,FH535 + Alpelisib; first compound 0.1265 µM,0.754
same,relative viability,FH535 + Alpelisib; first compound 0.4 µM,0.72
same,relative viability,FH535 + Alpelisib; first compound 1.265 µM,0.705
same,relative viability,FH535 + Linsitinib; first compound 0.04 µM,0.497
same,relative viability,FH535 + Linsitinib; first compound 0.1265 µM,0.627
same,relative viability,FH535 + Linsitinib; first compound 0.4 µM,0.641
same,relative viability,FH535 + Linsitinib; first compound 1.265 µM,0.568
same,relative viability,FH535 + Olaparib; first compound 0.04 µM,0.28
same,relative viability,FH535 + Olaparib; first compound 0.1265 µM,0.306
same,relative viability,FH535 + Olaparib; first compound 0.4 µM,0.284
same,relative viability,FH535 + Olaparib; first compound 1.265 µM,0.299
same,relative viability,FH535 + Decitabine; first compound 0.04 µM,0.251
same,relative viability,FH535 + Decitabine; first compound 0.1265 µM,0.228
same,relative viability,FH535 + Decitabine; first compound 0.4 µM,0.161
same,relative viability,FH535 + Decitabine; first compound 1.265 µM,0.222
same,relative viability,FH535; 0.04 µM,0.878
same,relative viability,FH535; 0.1265 µM,0.887
same,relative viability,FH535; 0.4 µM,0.928
same,relative viability,FH535; 1.265 µM,0.789
Calu-6,relative viability,FH535 + Crizotinib; first compound 0.04 µM,0.797
same,relative viability,FH535 + Crizotinib; first compound 0.1265 µM,0.814
same,relative viability,FH535 + Crizotinib; first compound 0.4 µM,0.783
same,relative viability,FH535 + Crizotinib; first compound 1.265 µM,0.601
same,relative viability,FH535 + Pictilisib; first compound 0.04 µM,1.02
same,relative viability,FH535 + Pictilisib; first compound 0.1265 µM,0.911
same,relative viability,FH535 + Pictilisib; first compound 0.4 µM,0.848
same,relative viability,FH535 + Pictilisib; first compound 1.265 µM,0.748
same,relative viability,FH535 + Lapatinib; first compound 0.04 µM,1.12
same,relative viability,FH535 + Lapatinib; first compound 0.1265 µM,1.14
same,relative viability,FH535 + Lapatinib; first compound 0.4 µM,1
same,relative viability,FH535 + Lapatinib; first compound 1.265 µM,0.76
same,relative viability,FH535 + Bortezomib; first compound 0.04 µM,0.908
same,relative viability,FH535 + Bortezomib; first compound 0.1265 µM,1.03
same,relative viability,FH535 + Bortezomib; first compound 0.4 µM,0.997
same,relative viability,FH535 + Bortezomib; first compound 1.265 µM,0.772
same,relative viability,FH535 + Navitoclax; first compound 0.04 µM,0.912
same,relative viability,FH535 + Navitoclax; first compound 0.1265 µM,0.849
same,relative viability,FH535 + Navitoclax; first compound 0.4 µM,0.772
same,relative viability,FH535 + Navitoclax; first compound 1.265 µM,0.547
same,relative viability,FH535 + Foretinib; first compound 0.04 µM,0.815
same,relative viability,FH535 + Foretinib; first compound 0.1265 µM,0.83
same,relative viability,FH535 + Foretinib; first compound 0.4 µM,0.877
same,relative viability,FH535 + Foretinib; first compound 1.265 µM,0.777
same,relative viability,FH535 + Alpelisib; first compound 0.04 µM,1.07
same,relative viability,FH535 + Alpelisib; first compound 0.1265 µM,0.982
same,relative viability,FH535 + Alpelisib; first compound 0.4 µM,0.866
same,relative viability,FH535 + Alpelisib; first compound 1.265 µM,0.87
same,relative viability,FH535 + Linsitinib; first compound 0.04 µM,0.972
same,relative viability,FH535 + Linsitinib; first compound 0.1265 µM,1.04
same,relative viability,FH535 + Linsitinib; first compound 0.4 µM,1
same,relative viability,FH535 + Linsitinib; first compound 1.265 µM,0.814
same,relative viability,FH535 + Olaparib; first compound 0.04 µM,0.583
same,relative viability,FH535 + Olaparib; first compound 0.1265 µM,0.594
same,relative viability,FH535 + Olaparib; first compound 0.4 µM,0.532
same,relative viability,FH535 + Olaparib; first compound 1.265 µM,0.507
same,relative viability,FH535; 0.04 µM,0.938
same,relative viability,FH535; 0.1265 µM,1.05
same,relative viability,FH535; 0.4 µM,0.956
same,relative viability,FH535; 1.265 µM,0.792
EBC-1,relative viability,FH535 + Crizotinib; first compound 0.04 µM,0.178
same,relative viability,FH535 + Crizotinib; first compound 0.1265 µM,0.182
same,relative viability,FH535 + Crizotinib; first compound 0.4 µM,0.192
same,relative viability,FH535 + Crizotinib; first compound 1.265 µM,0.178
same,relative viability,FH535 + Pictilisib; first compound 0.04 µM,0.44
same,relative viability,FH535 + Pictilisib; first compound 0.1265 µM,0.289
same,relative viability,FH535 + Pictilisib; first compound 0.4 µM,0.402
same,relative viability,FH535 + Pictilisib; first compound 1.265 µM,0.383
same,relative viability,FH535 + Lapatinib; first compound 0.04 µM,0.237
same,relative viability,FH535 + Lapatinib; first compound 0.1265 µM,0.209
same,relative viability,FH535 + Lapatinib; first compound 0.4 µM,0.196
same,relative viability,FH535 + Lapatinib; first compound 1.265 µM,0.151
same,relative viability,FH535 + Bortezomib; first compound 0.04 µM,0.622
same,relative viability,FH535 + Bortezomib; first compound 0.1265 µM,0.638
same,relative viability,FH535 + Bortezomib; first compound 0.4 µM,0.585
same,relative viability,FH535 + Bortezomib; first compound 1.265 µM,0.449
same,relative viability,FH535 + Navitoclax; first compound 0.04 µM,0.364
same,relative viability,FH535 + Navitoclax; first compound 0.1265 µM,0.391
same,relative viability,FH535 + Navitoclax; first compound 0.4 µM,0.491
same,relative viability,FH535 + Navitoclax; first compound 1.265 µM,0.416
same,relative viability,FH535 + Foretinib; first compound 0.04 µM,0.114
same,relative viability,FH535 + Foretinib; first compound 0.4 µM,0.0911
same,relative viability,FH535 + Foretinib; first compound 1.265 µM,0.101
same,relative viability,FH535 + Alpelisib; first compound 0.04 µM,0.737
same,relative viability,FH535 + Alpelisib; first compound 0.1265 µM,0.82
same,relative viability,FH535 + Alpelisib; first compound 0.4 µM,0.868
same,relative viability,FH535 + Alpelisib; first compound 1.265 µM,0.816
same,relative viability,FH535 + Linsitinib; first compound 0.04 µM,0.854
same,relative viability,FH535 + Linsitinib; first compound 0.1265 µM,0.899
same,relative viability,FH535 + Linsitinib; first compound 0.4 µM,0.91
same,relative viability,FH535 + Linsitinib; first compound 1.265 µM,0.646
same,relative viability,FH535 + Olaparib; first compound 0.04 µM,0.675
same,relative viability,FH535 + Olaparib; first compound 0.1265 µM,0.657
same,relative viability,FH535 + Olaparib; first compound 0.4 µM,0.712
same,relative viability,FH535 + Olaparib; first compound 1.265 µM,0.566
same,relative viability,FH535; 0.04 µM,0.924
same,relative viability,FH535; 0.1265 µM,0.983
same,relative viability,FH535; 0.4 µM,0.989
same,relative viability,FH535; 1.265 µM,0.815
